Experiment: Choice of the pH value (HPLC peak area of Forsythiaside)
Assay type: physicochemical
Conditions: for Peak Area: HPLC peak area of Forsythiaside in water
Source text: Taking appropriate amount of Forsythiaside, adding water to it for dissolution. Adjusting the pH value to 3.0, 3.5, 4.0, 4.5, 5.0, 5.5, 6.0 separately, then determining the peak area value of Forsythiaside at different pH value by HPLC to investigate the influence on the content of Forsythiaside caused by different pH value.

For Forsythiaside, the “Peak Area” value (pH Value 3.0) was 1410.0, the “Peak Area” value (pH Value 3.5) was 1499.0 and the “Peak Area” value (pH Value 4.0) was 1519.8. For the same substance, the “Peak Area” value (pH Value 4.5) was 1523.1, the “Peak Area” value (pH Value 5.0) was 1494.5 and the “Peak Area” value (pH Value 5.5) was 1480.6. For the same substance, the “Peak Area” value (pH Value 6.0) was 1423.5, the “content of Forsythiaside at different pH value” (pH value 3.0-6.0) was “not sufficiently varied” and the “content of Forsythiaside at different pH value” (pH value 4.5) was “highest content”.

From US20100317604A1, “FORSYTHIASIDE INJECTION PREPARATION AND PREPARATIVE METHOD THEREOF” (Shanghai Youseen New Medicine Exploition Co., Ltd, priority 2006, published 2010)
